Assay results reported in PMC11784026, “Phase 1 study of the safety, tolerability, and pharmacokinetics of a synthetic macrocyclic peptide antibiotic (BRII-693) in healthy adult participants” (Antimicrobial Agents and Chemotherapy, 2024).
Where two headings read alike, the source gives them in different places. Marks after values point to notes of the source that are not given here. Where a SMILES comes first, the peptide text is derived from it. Bridges are numbered along the chain shown (N, C = ends). [ ]: non-standard residue; d: D form. The star is where a group is joined. X1 = O=C(c1ccc(Cl)cc1Cl)*; Dab = NCC[C@H](N)C(=O)O; Abu = CC[C@H](N)C(=O)O; Dap = NC[C@H](N)C(=O)O

Assays:
[1] = Plasma pharmacokinetics after single ascending doses (SAD), phase 1; assay type: in vivo, human (healthy adult participants); settings: for clearance / Vd / half-life / AUC(0-inf) / Cmax / AUC(0-t) / Tmax: human, plasma; for clearance: total clearance; for Vd: volume of distribution during terminal phase, read-out: VZ; for half-life: apparent terminal half-life; for AUC(0-t): read-out: AUC0–6h
Experimental: Participants were then discharged on day 3.
Plasma and urine PK parameters were summarized for each cohort using descriptive statistics. Analyses using linear models were performed to assess dose proportionality (both single-dose cohorts 1–7 and multiple-dose cohorts 8–10). Dose-linearity of Cmax and AUC across the dose range was assessed by fitting the power model with ln-transformed parameter as response variables and ln-transformed dose (continuous variable) as a fixed effect. For each PK parameter and study phase (SAD or MAD) separately, a pooled estimate (across all dose cohorts) of slope, corresponding 95% confidence interval (CI), and between-subject coefficient of variation (CV) were calculated. Dose proportionality was to be concluded if the 95% CI for the slope spans 1. […] Least square means (LSMs) and difference in LSMs with 90% CI were calculated; these values were then back exponentiated to give the geometric LSM, geometric mean ratio, and 90% CI.

[2] = SAD; for fe0–48h: % of dose in urine as unchanged drug over 48 h; for CLR: renal clearance
Experimental: During the SAD phase of the study, cohort dosing of 10, 25, 50, 100, 200, 300, and 400 mg of BRII-693 was evaluated in a sequential manner. Each of the seven SAD cohorts enrolled eight eligible participants (six active; two placebo). On day 1, participants received a single IV dose of BRII-693 or placebo as a 1-hour infusion. Participants were then discharged on day 3.
For the SAD cohorts, blood samples for the measurement of BRII-693 in plasma were obtained before dosing and at 0.5 (mid-infusion), 1 (end of infusion), 1.25, 1.5, 2, 4, 6, 8, 12, 24, 36, and 48 hours following the start of dosing infusion. Urine samples were collected for PK assessment before dosing and at the time intervals of 0–4, 4–8, 8–12, 12–24, 24–36, and 36–48 hours after the start of dosing infusion.
All blood samples were collected into EDTA-containing vials, immediately placed on ice, and centrifuged at 3,000× g for approximately 10 minutes at 4°C. Supernatant plasma was transferred to two pre-chilled cryopreservation vials (at least 1.0 mL per vial) and stored at −80°C until shipped to the analytical laboratory. Urine samples collected for each time interval were refrigerated, aliquoted, and stored at −80°C until shipped to the analytical laboratory. Plasma and urine samples were analyzed for BRII-693 concentrations using validated high-performance liquid chromatography with detection by mass spectrometry method (BioAgilytix, San Diego, CA). The assay range was 50.0–50,000 ng/mL in both plasma and urine.
Area under the concentration-time curve (AUC) from time zero to the time of the last quantifiable concentration (AUC0–last), AUC from time zero to infinity (AUC0–inf), AUC within a dosing interval of 6 hours (AUC0–6h), maximum observed concentration (Cmax), time to reach maximum concentration (Tmax), apparent terminal half-life (t1/2), total clearance (CL), volume of distribution during terminal phase (Vz), and accumulation ratio based on AUC (ARAUC) were determined for BRII-693 in plasma. Urine parameters included amount and percentage of dose recovered in urine as unchanged drug over each collection interval and cumulatively and renal clearance (CLR). PK parameters were determined using noncompartmental methods in Phoenix WinNonlin (Certara, Version 8.3).

[3] = single 1-h IV infusion 10 mg, n = 6, arithmetic mean ± SD
[4] = single 1-h IV infusion 25 mg, n = 5, arithmetic mean ± SD
[5] = single 1-h IV infusion 50 mg, n = 6, arithmetic mean ± SD
[6] = single 1-h IV infusion 100 mg, n = 6, arithmetic mean ± SD
[7] = single 1-h IV infusion 200 mg, n = 6, arithmetic mean ± SD
[8] = single 1-h IV infusion 300 mg, n = 6, arithmetic mean ± SD
[9] = single 1-h IV infusion 400 mg, n = 6, arithmetic mean ± SD
[10] = single 1-h IV infusion 10 mg, n = 5, arithmetic mean ± SD

## CC[C@@H]1NC(=O)[C@@H](CC(C)C)NC(=O)[C@H](CCN)NC(=O)[C@@H](NC(=O)[C@H](CN)NC(=O)[C@@H](NC(=O)[C@H](CCN)NC(=O)c2ccc(Cl)cc2Cl)[C@@H](C)O)CCNC(=O)[C@H]([C@@H](C)O)NC(=O)[C@H](CCN)NC(=O)[C@H](CCN)NC1=O [BRII-693] (X1-[Dab]T[Dap][Dab][Dab][dL][Abu][Dab][Dab]T; lactam 4-C; N-terminus assumed)
[1]; [3]
  clearance: 63.8 mL/min
  Vd: 14.1 ± 1.54 L
  half-life: 2.58 ± 0.46 h
  AUC(0-inf): 2640 ± 330 ng·h/mL
  Cmax: 770 ± 120 ng/mL
  AUC(0-t): 2080 ± 190 ng·h/mL
[1]; [4]
  clearance: 72.7 mL/min
  Vd: 20.7 ± 7.61 L
  half-life: 3.22 ± 0.77 h
  AUC(0-inf): 5940 ± 1180 ng·h/mL
  Cmax: 1500 ± 380 ng/mL
  AUC(0-t): 4390 ± 1130 ng·h/mL
[1]; [5]
  clearance: 69.5 mL/min
  Vd: 19.2 ± 3.34 L
  half-life: 3.2 ± 0.43 h
  AUC(0-inf): 12200 ± 1790 ng·h/mL
  Cmax: 3230 ± 460 ng/mL
  AUC(0-t): 9160 ± 1170 ng·h/mL
[1]; [6]
  clearance: 62.7 mL/min
  Vd: 21.8 ± 3.17 L
  half-life: 4.07 ± 0.61 h
  AUC(0-inf): 27300 ± 4580 ng·h/mL
  Cmax: 6710 ± 970 ng/mL
  AUC(0-t): 19200 ± 2740 ng·h/mL
[1]; [7]
  clearance: 68.5 mL/min
  Vd: 21.3 ± 3.27 L
  half-life: 3.83 ± 1.23 h
  AUC(0-inf): 51400 ± 13900 ng·h/mL
  Cmax: 13200 ± 2190 ng/mL
  AUC(0-t): 36700 ± 6290 ng·h/mL
[1]; [8]
  clearance: 72.3 mL/min
  Vd: 25.8 ± 2.73 L
  half-life: 4.12 ± 0.23 h
  AUC(0-inf): 69800 ± 7750 ng·h/mL
  Cmax: 17300 ± 3050 ng/mL
  AUC(0-t): 48900 ± 6180 ng·h/mL
[1]; [9]
  clearance: 65.5 mL/min
  Vd: 24.6 ± 2.47 L
  half-life: 4.37 ± 0.51 h
  AUC(0-inf): 103000 ± 11600 ng·h/mL
  Cmax: 24300 ± 4710 ng/mL
  AUC(0-t): 71400 ± 7200 ng·h/mL
[1]; single 1-h IV infusion 10 mg, n = 6, median (range)
  Tmax: 1.12 h
[1]; single 1-h IV infusion 25 mg, n = 5, median (range)
  Tmax: 1.1 h
[1]; single 1-h IV infusion 50 mg, n = 6, median (range)
  Tmax: 1.07 h
[1]; single 1-h IV infusion 100 mg, n = 6, median (range)
  Tmax: 1.13 h
[1]; single 1-h IV infusion 200 mg, n = 6, median (range)
  Tmax: 1.18 h
[1]; single 1-h IV infusion 300 mg, n = 6, median (range)
  Tmax: 1.16 h
[1]; single 1-h IV infusion 400 mg, n = 6, median (range)
  Tmax: 1.19 h
[1]; single doses 10–400 mg, appeared dose independent
  Mean total clearance: approximately 4 L/h
[2]; [10]
  fe0–48h: 0.95 ± 0.50^b %
  CLR: 0.036 ± 0.018^b L/h
[2]; [4]
  fe0–48h: 5.73 ± 3.67%
  CLR: 0.22 ± 0.12 L/h
[2]; [5]
  fe0–48h: 21.5 ± 9.19%
  CLR: 0.86 ± 0.33 L/h
[2]; [6]
  fe0–48h: 40.2 ± 5.40%
  CLR: 1.51 ± 0.31 L/h
[2]; [7]
  fe0–48h: 47.6 ± 15.6%
  CLR: 1.92 ± 0.80 L/h
[2]; [8]
  fe0–48h: 57.5 ± 16.2%
  CLR: 2.44 ± 0.50 L/h
[2]; [9]
  fe0–48h: 68.4 ± 11.4%
  CLR: 2.68 ± 0.42 L/h
